According to US4866196A, “Phenoxyacetic acid derivatives and preparation thereof” (Tanabe Seiyaku Co., Ltd., priority 1986, dated 1989):
≈ marks a conversion by molar mass, not a printed value.

Columns and labels:
bleeding time = assay: Effect on bleeding time (in vivo); parameters: species or system ddy-male mice; conditions: Mus musculus; oral, 3 hours before tail cut; dose required to induce at least 50% prolongation of bleeding time vs control; read-out: minimum effective dose, prolonging effect on the bleeding time
Experimental: A test compound (suspended or dissolved in an aqueous 0.25% carboxymethylcellulose solution) was orally administered to ddy-male mice (5 weeks old, 10 mice per group) fasted overnight. Three hours later, the tip (ca. 2 mm) of the tail was cut off under ether anesthesia, and said tail was immersed in physiological saline (37° C.) immediately. The bleeding time (seconds) of the medicated group of mice was compared with that of a control group of mice to which an aqueous 0.25% CMC solution was administered instead of the test compound solution. The prolonging effect of each test compound on the bleeding time was estimated in terms of a minimum effective dose, i.e., the dose required to induce at least 50% prolongation of the bleeding time as compared with that of the control group.

[1] = test system: arachidonic acid-induced pulmonary embolism; assay: Effect on arachidonic acid-induced pulmonary embolism (in vivo); parameters: species or system ddy-male mice; conditions: Mus musculus; oral, 3 hours before arachidonic acid; dose required to shorten the recovery time by at least 15% vs control; read-out: Minimum Effective Dose, inhibiting effect on arachidonic acid-induced pulmonary embolism
Experimental: A test compound (suspended or dissolved in an aqueous sodium bicarbonate and 0.25% carboxymethylcellulose solution) was orally administered to ddy-male mice (5 weeks old, 10 mice per group) fasted overnight. Three hours later, arachidonic acid (125 mg/2.5 ml of 1% NaHCO3 solution+7.5 ml of 0.9% aqueous sodium chloride/kg) was injected to the tail vein of mice to induce pulmonary embolism, and the recovery time(minutes) of locomotive activity of the mice (i.e., the duration from the injection of arachidonic acid to the time the mice recovered from respiratory distress and began to walk) was compared with that of a control group of mice to which an aqueous 0.25% CMC solution was administered instead of the test compound solution. The inhibiting effect of each test compound on arachidonic acid-induced pulmonary embolism was estimated in terms of a minimum effective dose, i.e., the dose required to shorten the recovery time by at least 15% as compared with the control group.

[2] = test system: collagen-induced platelet aggregation; assay: Effect on collagen-induced platelet aggregation (in vitro); type: cell-based, human; conditions: for IC50: 2 min, human platelet-rich plasma, 4×10^5 cells/mm^3, 2 minutes at 37° C., Born's method, read-out: IC50, collagen-induced platelet aggregation-inhibiting activity
Experimental: Nine volumes of blood collected from a healthy human were mixed with one volume of 3.13% (w/v) trisodium citrate solution, and the mixture was centrifuged to give platelet-rich plasma ("PRP") as the supernatant. The bottom layer was further centrifuged to give platelet-poor plasma ("PPP") as the supernatant. PRP was diluted with PPP so that the platelet count was about 4×10^5 cells/mm^3. 25 μl of a test compound solution containing an equimolar amount of sodium bicarbonate was added to 200 μl of said diluted PRP. After the mixture was stirred for 2 minutes at 37° C., a collagen solution [25-29 μg/ml solution: Biochim. Biophys. Acta, 186, 254 (1969)] was added thereto to induce platelet aggregation. The degree of platelet aggregation was examined by Born's method (Nature, 194, 927 (1962)), and the platelet aggregation-inhibiting activity of the test compound was estimated. The platlet aggregation-inhibiting activity of the test compound was expressed as IC50, i.e., the concentration of the test compound required to induce 50% inhibition of collagen-induced platelet aggregation.

Row | SMILES | IC50 [2] | minimal effective dose (bleeding time) | minimal effective dose [1] | platelet aggregation-inhibiting activity relative to 4-(2-benzenesulfonylaminoethyl)phenoxyacetic acid ([2]; in vitro, times as strong as known compound of JP 35910/1982)
1 | CC(CNS(=O)(=O)c1ccccc1)c1ccc(OCC(=O)O)c(F)c1 (racemic) [Compound No. 4, (±)4-(2-benzenesulfonylamino-1-methylethyl)-2-fluorophenoxyacetic acid] |  |  | 0.1 mg/kg | 
2 | CC(CNS(=O)(=O)c1ccc(Cl)cc1)c1ccc(OCC(=O)O)c(F)c1 (racemic) [Compound No. 5, (±)4-(2-(4-chlorophenyl)sulfonylamino-1-methylethyl)-2-fluorophenoxyactic acid] |  |  | 0.03 mg/kg | 

Continued, in another order:

Row | IC50 [2] | SMILES | minimal effective dose (bleeding time) | minimal effective dose [1] | platelet aggregation-inhibiting activity relative to 4-(2-benzenesulfonylaminoethyl)phenoxyacetic acid ([2]; in vitro, times as strong as known compound of JP 35910/1982)
3 | 0.7 µg/mL (≈ 1.82 µM) | CC(Cc1ccc(OCC(=O)O)cc1)NS(=O)(=O)c1ccc(Cl)cc1 (racemic) [Compound No. 1, (±)4-[2(4-chlorophenyl)sulfonylaminopropyl]phenoxyacetic acid] | 3 mg/kg | 1 mg/kg | 
4 | 0.5 µg/mL (≈ 1.3 µM) | CC(CNS(=O)(=O)c1ccc(Cl)cc1)c1ccc(OCC(=O)O)cc1 (racemic) [Compound No. 2, (±)4-[2(4-chlorophenyl)sulfonylamino-1-methylethyl]phenoxyacetic acid] | 10 mg/kg | 0.3 mg/kg | about 4 times
5 | 0.5 µg/mL (≈ 1.17 µM) | CC(CNS(=O)(=O)c1ccc(Br)cc1)c1ccc(OCC(=O)O)cc1 (racemic) [Compound No. 3, (±)4-[2(4-bromophenyl)sulfonylamino-1-methylethyl]phenoxyacetic acid] | 10 mg/kg | 0.1 mg/kg | 
6 | 2 µg/mL (≈ 5.96 µM) | O=C(O)COc1ccc(CCNS(=O)(=O)c2ccccc2)cc1 [Known Compound, 4-(2-benzenesulfonylaminoethyl)phenoxyacetic acid, reference compound] | 30 mg/kg | 30 mg/kg | 
